According to patent publication US8476197B2, “Aminopropenoates as fungicides” (priority 2009, dated 2013):
Read-outs that look alike come from different tables or passages of the source. Marks after values point to notes of the source that are not given here.

SMILES | Log P (pH 2.7) | further results
CCOC(=O)C(C#N)=C(NC(C)c1ccc(Cl)cc1)c1c(C)nn(C)c1F (stereo not drawn) [Compound 352] | 3.62^[a] | –
CCOC(=O)C(C#N)=C(Nc1ccccc1SC)c1c(C)nn(C)c1F [Compound 354] | 3.21^[a] | –
CCOC(=O)C(C#N)=C(NC(C)c1ccc(Cl)cc1)c1nsc(Cl)c1Cl (stereo not drawn) [Compound 355] | 4.65^[a] | –
COC(=O)C(C#N)=C(NC(C)c1ccc(Cl)cc1)c1cn(C)nc1C(F)F (stereo not drawn) [Compound 356] | 3.31^[a] | –
COC(=O)C(C#N)=C(Nc1ccccc1SC)c1cn(C)nc1C(F)F [Compound 357] | 2.8^[a] | –
CCOC(=O)C(C#N)=C(Nc1ccccc1SC)c1nsc(Cl)c1Cl [Compound 358] | 4.31^[a] | –
CCOC(=O)C(C#N)=C(Nc1ccccc1SC)c1ccc(Cl)nc1Cl [Compound 360] | – | Log P (pH 2.3): 3.97; Log P (pH 7.5): 3.79
CCOC(=O)C(C#N)=C(NC(C)c1ccc(Cl)cc1)c1conc1C (stereo not drawn) [Compound 362] | 3.62^[a] | –
CCOC(=O)C(C#N)=C(Nc1ccccc1SC)c1conc1C [Compound 363] | 3.21^[a] | –
CCOC(=O)C(C#N)=C(NC(C)c1ccc(Cl)cc1)c1sccc1Br (stereo not drawn) [Compound 365] | 4.42^[a] | –
CCOC(=O)C(C#N)=C(Nc1ccccc1SC)c1sccc1Br [Compound 366] | 3.96^[a] | –
CCOC(=O)C(C#N)=C(NC(C)c1ccc(Cl)cc1)c1c(C)nn(C)c1Cl (stereo not drawn) [Compound 367] | 3.8^[a] | –
CCOC(=O)C(C#N)=C(NC(C)c1ccc(Cl)cc1)c1sccc1C(F)(F)F (stereo not drawn) [Compound 368] | 4.47^[a] | –
CCOC(=O)C(C#N)=C(Nc1ccccc1SC)c1sccc1C(F)(F)F [Compound 369] | 4.01^[a] | –
COC(=O)C(C#N)=C(NC(C)(C)c1ccccc1)c1cccnc1Cl [Compound 370] | 2.98^[a] | –
COC(=O)C(C#N)=C(NC(C)c1ccncc1)c1cccnc1Cl (stereo not drawn) [Compound 371] | 1.24^[a] | –
CCC(NC(=C(C#N)C(=O)OC)c1cccnc1Cl)c1cccc(Cl)c1 (stereo not drawn) [Compound 372] | 3.58^[a] | –
COC(=O)C(C#N)=C(NC(C)c1ccccc1C)c1cccnc1Cl (stereo not drawn) [Compound 373] | 3.15^[a] | –
COC(=O)C(C#N)=C(NC(C)c1ccc(Cl)cc1Cl)c1cccnc1Cl (stereo not drawn) [Compound 374] | 3.73^[a] | –
COC(=O)C(C#N)=C(NC(C)c1ccccc1Cl)c1cccnc1Cl (stereo not drawn) [Compound 375] | 3.19^[a] | –
CCC(NC(=C(C#N)C(=O)OC)c1cccnc1Cl)c1ccc(Cl)cc1 (stereo not drawn) [Compound 376] | 3.58^[a] | –

SMILES | Log P (pH 2.7) | further results
COC(=O)C(C#N)=C(NC(C)c1cccc(OC)c1)c1cccnc1Cl (stereo not drawn) [Compound 377] | 2.89^[a] | –
CCOc1ccc(C(C)NC(=C(C#N)C(=O)OC)c2cccnc2Cl)cc1 (stereo not drawn) [Compound 378] | 3.02^[a] | –
COC(=O)C(C#N)=C(NC(C)c1ccc(C(C)C)cc1)c1cccnc1Cl (stereo not drawn) [Compound 379] | 4^[a] | –
COC(=O)C(C#N)=C(NC1(c2c(F)cccc2F)CC1)c1cccnc1Cl [Compound 380] | 2.8^[a] | –
COC(=O)C(C#N)=C(NC(c1ccc(Cl)cc1)C1CC1)c1cccnc1Cl (stereo not drawn) [Compound 381] | 3.58^[a] | –
COC(=O)C(C#N)=C(NC1(c2ccccc2Cl)CC1)c1cccnc1Cl [Compound 382] | 2.61^[a] | –
COC(=O)C(C#N)=C(NC1(c2cccc(Cl)c2)CC1)c1cccnc1Cl [Compound 383] | 3.11^[a] | –
COC(=O)C(C#N)=C(NC1(c2ccc(Cl)cc2)CC1)c1cccnc1Cl [Compound 384] | 3.19^[a] | –
COC(=O)C(C#N)=C(NC(C)(C)c1c(F)cccc1F)c1cccnc1Cl [Compound 385] | 2.98^[a] | –
COC(=O)C(C#N)=C(NC(C)(C)c1ccc(OC)cc1)c1cccnc1Cl [Compound 386] | 3.02^[a] | –
COC(=O)C(C#N)=C(NC(C)c1ccc(Cl)c(Cl)c1)c1cccnc1Cl (stereo not drawn) [Compound 387] | 3.58^[a] | –
COC(=O)C(C#N)=C(NC(C)c1cc(Cl)cc(Cl)c1)c1cccnc1Cl (stereo not drawn) [Compound 388] | 3.68^[a] | –
COC(=O)C(C#N)=C(NC(CC(F)(F)F)c1ccccc1)c1cccnc1Cl (stereo not drawn) [Compound 389] | 2.98^[a] | –
COC(=O)C(C#N)=C(NC(c1cccc(Cl)c1)C1CC1)c1cccnc1Cl (stereo not drawn) [Compound 390] | 2.93^[a] | –
CCC(NC(=C(C#N)C(=O)OC)c1cccnc1Cl)c1ccccc1OC (stereo not drawn) [Compound 391] | 3.15^[a] | –
COC(=O)C(C#N)=C(NC(C)c1ccccc1OC)c1cccnc1Cl (stereo not drawn) [Compound 392] | 2.84^[a] | –
COC(=O)C(C#N)=C(NC(C)(C)c1ccccc1Cl)c1cccnc1Cl [Compound 393] | 3.15^[a] | –
COC(=O)C(C#N)=C(NC(C)c1cc(Cl)ccc1Cl)c1cccnc1Cl (stereo not drawn) [Compound 394] | 3.28^[a] | –
COC(=O)C(C#N)=C(NC(C)c1ccc(C(F)(F)F)cc1)c1cccnc1Cl (stereo not drawn) [Compound 395] | 3.37^[a] | –
COC(=O)C(C#N)=C(NC(C)c1cccc(C)c1)c1cccnc1Cl (stereo not drawn) [Compound 396] | 3.02^[a] | –
